# From patent US9744203B2, “Application of composition in preparing health care product or medicine for preventing and treating leukopenia caused by radiotherapy and chemotherapy” (JIANGZHONG PHARMACEUTICAL CO., LTD., priority 2012, dated 2017)
# Values joined by “and” are separate entries in the source; they are usually repeats but may differ in a detail not shown here. Identical values can stand only once.
# Columns and labels:
# Type in all cases: in vivo
# [1] = tested on: leucocyte reduction in mice induced by X-ray radiation; assay: Bone marrow nucleated cell count, mice after X-ray radiation; conditions: X-ray radiation model; one femur; positive control batyl alcohol 100 mg/kg intragastric
# [2] = tested on: leucocyte reduction in mice induced by cyclophosphamide; assay: Bone marrow DNA content determination, mice injected with cyclophosphamide; conditions: cyclophosphamide model; absorbance at 268 nm, day 15; positive control batyl alcohol 100 mg/kg intragastric
# Method: (§1) Mice were randomly divided into 6 groups with 10 animals per group, i.e., normal control group, model control group, positive control group, and groups on low, medium and high doses of Composition 1. The low-, medium- and high-dose groups were intragastrically given Composition 1 at a dose of 2.0 g crude drug/kg, 4.0 g crude drug/kg, and 12.0 g crude drug/kg, respectively; the positive control group was intragastrically given batyl alcohol (100 mg/kg) at a dose of 0.1 ml/10 g body weight; the normal control group and the model control group were intragastrically given an equivalent volume of distilled water; and the dosage regime lasted for 15 days with one dose per day. From day 9 of intragastrical administration, all mice in each group, except the normal control group, were given cyclophosphamide at a dose of 40 mg/kg each day via subcutaneous injection for 3 consecutive days. One hour after the intragastrical administration on day 15, blood and femurs were harvested for tests.
# A 7 mm section was dissected from the middle of the right femur. The whole bone marrow was flushed into a centrifuge tube with a 10 mL solution of 0.005 mol/L CaCl2, placed in a refrigerator at 4° C. for 30 min, and then centrifuged at 2500 r/min for 15 min. […] The supernatant was removed and its absorbance at 268 nm was measured.
# [3] = tested on: leucocyte reduction in mice induced by cytarabine; assay: Peripheral leucocyte assay, leucocyte reduction in mice induced by cytarabine; conditions: cytarabine model; positive control batyl alcohol 100 mg/kg intragastric, 15 days
# Method: [Worded in the source for another target; used here, by the source, with some conditions changed.] as §1
# (§2) 40 μL blood was drawn from the tail vein of the mice and transferred into a EDTA-K2 anticoagulative tube, into which 160 μL dilution liquid was added, and then assayed in an automatic blood cell analyzer. […]
# [4] = tested on: leucocyte reduction in mice induced by cyclophosphamide; assay: Peripheral leucocyte assay, leucocyte reduction in mice induced by cyclophosphamide; conditions: cyclophosphamide model; positive control batyl alcohol 100 mg/kg intragastric, 15 days
# Method: as §1
# 40 μL blood was drawn from the tail vein of the mice and transferred into a EDTA-K2 anticoagulative tube, into which 160 μL dilution liquid was added, and then assayed in an automatic blood cell analyzer.
# Mice were randomly divided into 6 groups with 10 animals per group, i.e., normal control group, model control group, positive control group, and groups on low, medium and high doses of Composition 2. […]
# [5] = tested on: leucocyte reduction in mice induced by cytarabine; assay: Bone marrow nucleated cell count, mice injected with cytarabine; conditions: cytarabine model; one femur, day 15; positive control batyl alcohol 100 mg/kg intragastric
# Method: [Worded in the source for another target; used here, by the source, with some conditions changed.] as §1
# Mice were sacrificed by cervical dislocation. The left femur was removed and flushed with a 10 ml solution of 3% acetic acid to obtain the cells in the bone marrow. The number of cells in 4 large grids on a hemacytometer was counted, and the number was multiplied by 2.5×10^4 to obtain the BMC in one femur. […]
# [6] = tested on: leucocyte reduction in mice induced by cyclophosphamide; assay: Bone marrow nucleated cell count, mice injected with cyclophosphamide; conditions: cyclophosphamide model; one femur, day 15; positive control batyl alcohol 100 mg/kg intragastric
# Method: as §1
# Mice were sacrificed by cervical dislocation. The left femur was removed and flushed with a 10 ml solution of 3% acetic acid to obtain the cells in the bone marrow. The number of cells in 4 large grids on a hemacytometer was counted, and the number was multiplied by 2.5×10^4 to obtain the BMC in one femur.
# [7] = tested on: leucocyte reduction in mice induced by X-ray radiation; assay: Peripheral leucocyte assay, leucocyte reduction in mice induced by X-ray radiation; conditions: X-ray radiation model; positive control batyl alcohol 100 mg/kg intragastric
# Method: [Worded in the source for another target; used here, by the source, with some conditions changed.] as §1, §2
smiles,measurement,setting,value
"CCCCCCCCCCCCCCCCCCOCC(O)CO (stereo not shown) [Positive control, batyl alcohol]",Bone marrow BCM,[1],13.20 ± 2.02 ×10^6 and 12.43 ± 2.29 ×10^6 and 13.69 ± 2.65 ×10^6 and 14.57 ± 2.57 ×10^6 and 13.92 ± 2.57 ×10^6 and 14.78 ± 2.44 ×10^6
same,Bone marrow DNA,[2],0.610 ± 0.138 and 0.629 ± 0.150 and 0.625 ± 0.162 and 0.730 ± 0.150 and 0.755 ± 0.128 and 0.958 ± 0.138
same,WBC after modeling,[3],3.80 ± 1.03 ×10^9 and 4.67 ± 1.27 ×10^9 and 4.90 ± 1.43 ×10^9 and 4.16 ± 1.09 ×10^9 and 4.53 ± 1.28 ×10^9 and 6.62 ± 1.52 ×10^9
same,WBC after treatment,[3],6.54 ± 1.93 ×10^9 and 6.85 ± 1.70 ×10^9 and 7.10 ± 1.88 ×10^9 and 7.26 ± 1.90 ×10^9 and 7.54 ± 1.62 ×10^9 and 8.52 ± 1.55 ×10^9
same,WBC after modeling,[4],3.55 ± 1.21 ×10^9 and 4.64 ± 1.30 ×10^9 and 5.25 ± 1.30 ×10^9 and 6.13 ± 1.47 ×10^9 and 5.73 ± 1.60 ×10^9 and 6.25 ± 1.76 ×10^9
same,WBC after treatment,[4],6.20 ± 1.82 ×10^9 and 7.34 ± 1.59 ×10^9 and 7.56 ± 1.80 ×10^9 and 8.23 ± 1.54 ×10^9 and 7.89 ± 1.60 ×10^9 and 8.96 ± 1.93 ×10^9
same,Bone marrow BCM,[5],12.53 ± 2.24 ×10^6 and 13.95 ± 2.77 ×10^6 and 13.64 ± 2.19 ×10^6 and 14.32 ± 2.65 ×10^6 and 13.25 ± 2.31 ×10^6 and 13.58 ± 2.17 ×10^6
same,Bone marrow BCM,[6],13.44 ± 2.36 ×10^6 and 11.87 ± 2.08 ×10^6 and 13.65 ± 2.42 ×10^6 and 14.73 ± 2.04 ×10^6 and 14.86 ± 2.28 ×10^6 and 15.72 ± 2.34 ×10^6
same,WBC on day 8 after treatment,[7],3.66 ± 1.05 ×10^9 and 5.60 ± 1.28 ×10^9 and 5.87 ± 1.62 ×10^9 and 5.80 ± 1.44 ×10^9 and 5.32 ± 1.54 ×10^9 and 5.53 ± 1.28 ×10^9
same,WBC on day 15 after treatment,[7],6.92 ± 1.98 ×10^9 and 7.04 ± 1.87 ×10^9 and 7.49 ± 1.52 ×10^9 and 7.88 ± 1.61 ×10^9 and 7.80 ± 1.43 ×10^9 and 8.03 ± 1.59 ×10^9
